Values quoted from earlier work in patent US7879374B2, “Composition including superoxide dismutase and prickly-pear cactus for minimizing and preventing hangovers” (priority 2005, dated 2011).

What was measured:
[1] = test system: hepatic metabolizing enzymes for lipids and alcohol
[2] = rat, in vivo, po
[3] = by speeding the use of fat during exercise
[4] = recent study of one-hundred twenty young females
[5] = liver of rats given sesamin vs vehicle

## c1cc2c(cc1[C@H]1OC[C@H]3[C@@H]1CO[C@@H]3c1ccc3c(c1)OCO3)OCO2 [Sesamin]
[1]; [5]
  gene expression levels of the late stage enzymes of beta-oxidation (trifunctional enzyme, acyl-CoA oxidase, bifunctional enzyme, 3-ketoacyl-CoA thiolase): significantly increased
  gene expression of alcohol dehydrogenase: not changed
  gene expression of aldehyde dehydrogenase: about 3 fold
  gene expression of liver catalase: not changed
  transcription of the genes encoding the enzymes for fatty acid synthesis: decreased
[1]; rat, in vivo
  gene expression of CYP2E1: not changed
[2]
  dose of sesamin detected in bile as glucuronides of catechol metabolites: Over 40 % of the dose

## Cn1c(=O)c2c(ncn2C)n(C)c1=O [Caffeine]
[3]
  increase in endurance: about fifteen

## Cc1ncc(C[n+]2csc(CCO)c2C)c(N)n1 [Thiamin]
[4]
  effects on mood and cognitive functioning: positive effects
